Experimental data from patent US20230049952A1, “METHODS AND COMPOUNDS FOR RESTORING MUTANT P53 FUNCTION” (PMV Pharmaceuticals, Inc., priority 2020, published 2023).
Like-named read-outs stand apart in the source and are kept apart here.

Assays:
[1] = metabolic stability in cryopreserved hepatocytes; assay type: in vitro ADME, cynomolgus monkey; conditions: Monkey cryopreserved hepatocytes
Experimental: (§1) Mixed-gender human cryopreserved hepatocytes, male Sprague-Dawley rat cryopreserved hepatocytes, male CD-1 mouse cryopreserved hepatocytes, male beagle dog cryopreserved hepatocytes, and male cynomolgus monkey cryopreserved hepatocytes were used for the study. The hepatocytes were thawed, pooled into Krebs Henseleit buffer (KHB, pH 7.4), and kept on ice prior to the experiments. […] Each experiment was performed in triplicate. The final DMSO content in the incubation mixture was ≤0.1%. […] Positive controls, testosterone (1 μM) and 7-hydroxycoumarin (7-HC) (100 μM), were performed in parallel to confirm the activity of the hepatocytes. […] Aliquots of testosterone were withdrawn (n=1) at 0, 5, 15, 30, 60, and 120 minutes. Aliquots of 7-HC were withdrawn (n=1) at 0 and 15 minutes. The reaction was immediately terminated by adding three volumes of ice-cold MeCN containing IS. The samples were then mixed and spun by centrifuge to precipitate proteins. An aliquot of the supernatant was then diluted with water. Calibration standards for the analysis of 7-HC metabolites were prepared in matched matrix. […] All samples were analyzed by LC-MS/MS. The peak area response ratio (PARR) vs. IS was compared to the PARR at time 0 to determine the percent remaining at each time point. Half-lives and clearance values were calculated using GraphPad software, fitting to a single-phase exponential decay equation.
(§2) Mixed-gender human cryopreserved hepatocytes, male Sprague-Dawley rat cryopreserved hepatocytes, male CD-1 mouse cryopreserved hepatocytes, male beagle dog cryopreserved hepatocytes, and male cynomolgus monkey cryopreserved hepatocytes were thawed and pooled into KHB buffer (pH 7.4) and kept on ice prior to the experiments. […] Each experiment was performed in triplicate. The final DMSO content in the incubation mixture was ≤0.1%.
(§3) Positive controls, testosterone (1 μM) and 7-hydroxycoumarin (7-HC) (100 μM), were performed in parallel to confirm the activity of the hepatocytes. […] Aliquots of testosterone were withdrawn (n=1) at 0, 5, 15, 30, 60, and 120 minutes. Aliquots of 7-HC were withdrawn (n=1) at 0 and 15 minutes. The reaction was immediately terminated by adding three volumes of ice-cold MeCN containing IS. The samples were then mixed and spun by centrifuge to precipitate proteins. An aliquot of the supernatant was then diluted with water. Calibration standards for the analysis of 7-HC metabolites were prepared in matched matrix. […] All samples were analyzed by LC-MS/MS. Analytical conditions are outlined below. The peak area response ratio (PARR) vs. IS was compared to the PARR at time 0 to determine the percent remaining at each time point. Half-lives and clearance values were calculated using GraphPad software, fitting to a single-phase exponential decay equation.

[2] = metabolic stability in cryopreserved hepatocytes; assay type: in vitro ADME, rat; conditions: Rat cryopreserved hepatocytes
Experimental: as §1, §2, §3

[3] = metabolic stability in cryopreserved hepatocytes; assay type: in vitro ADME, dog; conditions: Dog cryopreserved hepatocytes
Experimental: Mixed-gender human cryopreserved hepatocytes, male Sprague-Dawley rat cryopreserved hepatocytes, male CD-1 mouse cryopreserved hepatocytes, male beagle dog cryopreserved hepatocytes, and male cynomolgus monkey cryopreserved hepatocytes were used for the study. The hepatocytes were thawed, pooled into Krebs Henseleit buffer (KHB, pH 7.4), and kept on ice prior to the experiments. […] Each experiment was performed in triplicate. The final DMSO content in the incubation mixture was ≤0.1%. […] Aliquots of testosterone were withdrawn (n=1) at 0, 5, 15, 30, 60, and 120 minutes. Aliquots of 7-HC were withdrawn (n=1) at 0 and 15 minutes. The reaction was immediately terminated by adding three volumes of ice-cold MeCN containing IS. The samples were then mixed and spun by centrifuge to precipitate proteins. An aliquot of the supernatant was then diluted with water. Calibration standards for the analysis of 7-HC metabolites were prepared in matched matrix. […] All samples were analyzed by LC-MS/MS. The peak area response ratio (PARR) vs. IS was compared to the PARR at time 0 to determine the percent remaining at each time point. Half-lives and clearance values were calculated using GraphPad software, fitting to a single-phase exponential decay equation.
as §2
Aliquots of testosterone were withdrawn (n=1) at 0, 5, 15, 30, 60, and 120 minutes. Aliquots of 7-HC were withdrawn (n=1) at 0 and 15 minutes. The reaction was immediately terminated by adding three volumes of ice-cold MeCN containing IS. The samples were then mixed and spun by centrifuge to precipitate proteins. An aliquot of the supernatant was then diluted with water. Calibration standards for the analysis of 7-HC metabolites were prepared in matched matrix. […] All samples were analyzed by LC-MS/MS. Analytical conditions are outlined below. The peak area response ratio (PARR) vs. IS was compared to the PARR at time 0 to determine the percent remaining at each time point. Half-lives and clearance values were calculated using GraphPad software, fitting to a single-phase exponential decay equation.

human hepatocytes [4] = assay: metabolic stability in cryopreserved hepatocytes; assay type: in vitro ADME; conditions: Human cryopreserved hepatocytes; positive control, 1 μM
Experimental: as §1, §2, §3

[5] = metabolic stability in cryopreserved hepatocytes; assay type: in vitro ADME, human; conditions: both sexes, pH 7.4; Human cryopreserved hepatocytes; positive control 1 μM
Experimental: as §1, §2, §3

[6] = metabolic stability in cryopreserved hepatocytes; assay type: in vitro ADME, mouse; conditions: Mouse cryopreserved hepatocytes
Experimental: as §1, §2, §3

human hepatocytes [7] = conditions: male, 72 h, 100 μM
BCRP [8] = biological target: T1, BCRP (Homo sapiens, UniProt Q9UNQ0); assay: BCRP substrate assessment, Caco-2 monolayers; assay type: in vitro ADME; parameters: host or cells: Caco-2 (clone C2BBe1)
T1 sequence (Q9UNQ0 1-655): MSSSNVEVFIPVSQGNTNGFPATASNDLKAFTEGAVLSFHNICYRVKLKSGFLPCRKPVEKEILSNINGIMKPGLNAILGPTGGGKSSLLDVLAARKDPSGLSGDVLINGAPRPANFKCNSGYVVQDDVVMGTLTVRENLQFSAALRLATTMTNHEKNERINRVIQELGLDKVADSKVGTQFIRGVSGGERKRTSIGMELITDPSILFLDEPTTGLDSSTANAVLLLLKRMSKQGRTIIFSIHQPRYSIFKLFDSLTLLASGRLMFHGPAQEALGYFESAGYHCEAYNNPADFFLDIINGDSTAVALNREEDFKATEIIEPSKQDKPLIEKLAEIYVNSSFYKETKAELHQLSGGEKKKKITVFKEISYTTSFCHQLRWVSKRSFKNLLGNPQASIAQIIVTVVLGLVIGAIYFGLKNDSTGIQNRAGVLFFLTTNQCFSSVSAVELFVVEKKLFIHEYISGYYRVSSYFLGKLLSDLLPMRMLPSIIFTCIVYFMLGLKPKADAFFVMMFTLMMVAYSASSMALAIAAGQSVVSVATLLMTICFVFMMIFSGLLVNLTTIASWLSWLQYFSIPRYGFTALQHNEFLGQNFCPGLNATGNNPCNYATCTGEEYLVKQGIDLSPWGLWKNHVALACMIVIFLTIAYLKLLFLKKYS

BCRP [9] = biological target: T1, BCRP; assay: in vitro
BCRP [10] = assay: cell batch quality control, BCRP-MDCK monolayers; assay type: in vitro ADME; conditions: dog; BCRP-MDCK cell batch QC; passage 23
Experimental: (§4) BCRP-MDCK cell monolayers were prepared at Absorption Systems. […] Each determination was performed in duplicate.

BCRP [11] = biological target: T1, BCRP; assay: BCRP substrate assessment, BCRP-MDCK monolayers; assay type: in vitro ADME
Experimental: as §4

[12] = male, beagle, pH 7.4, positive control 1 μM
[13] = male, CD-1, pH 7.4, positive control 1 μM

## C[C@]12CC[C@H]3[C@@H](CCC4=CC(=O)CC[C@@]43C)[C@@H]1CC[C@@H]2O [testosterone]
[1]; positive control 1 μM
  half-life: 3.08 min
[1]; positive control, 1 μM
  CLint: 0.150 mL/min/10^6 cells
  half-life: 3.08 min
[1]; male, pH 7.4, positive control 1 μM
  hepatocyte CLint: 150 µL/min/1e6 cells
[2]; positive control, 1 μM
  CLint: 0.405 mL/min/10^6 cells
  half-life: 1.14 min
[2]; male, Sprague-Dawley, pH 7.4, positive control 1 μM
  hepatocyte CLint: 405 µL/min/1e6 cells
[2]; male, Sprague-Dawley, pH 7.4, positive control 1 μM, read-out: Half-life
  half-life: 1.14 min
[3]; positive control, 1 μM
  CLint: 0.0672 mL/min/10^6 cells
[3]; [12]
  half-life: 6.88 min
  hepatocyte CLint: 67.2 µL/min/1e6 cells
Human hepatocytes [4]
  CLint: 0.108 mL/min/10^6 cells
[5]
  half-life: 4.28 min
  hepatocyte CLint: 108 µL/min/1e6 cells
[6]; positive control, 1 μM
  CLint: 0.181 mL/min/10^6 cells
[6]; [13]
  half-life: 2.55 min
  hepatocyte CLint: 181 µL/min/1e6 cells

## CN(C)CCCN1c2ccccc2Sc2ccc(Cl)cc21 [Chlorpromazine, chlorpromazine]
Human hepatocytes [7]
  % MTS Absorbance Relative to Vehicle Control: 59.4%
  Formazan Absorbance (n = 6) Mean: 0.174

## Nc1nc(Cl)nc2c1ncn2[C@H]1C[C@H](O)[C@@H](CO)O1 [Cladribine, cladribine]
BCRP [8]; Caco-2, Cladribine
  BCRP Substrate Classification: Positive
BCRP [8]; human, Caco-2, pH 7.4, Caco-2, Cladribine, A-to-B
  recovery at 120 min: 80.5%
BCRP [8]; human, Caco-2, pH 7.4, Caco-2, Cladribine, A-to-B, read-out: Papp AVG
  Papp A→B at 120 min: 5.8 nm/s
BCRP [8]; human, Caco-2, pH 7.4, Caco-2, Cladribine, A-to-B, read-out: Papp R1
  Papp A→B at 120 min: 6.81 nm/s
BCRP [8]; human, Caco-2, pH 7.4, Caco-2, Cladribine, A-to-B, read-out: Papp R2
  Papp A→B at 120 min: 4.78 nm/s
BCRP [8]; human, Caco-2, pH 7.4, Caco-2, Cladribine, B-to-A
  recovery at 120 min: 85.6%
BCRP [8]; human, Caco-2, pH 7.4, Caco-2, Cladribine, B-to-A, read-out: Papp AVG
  Papp B→A at 120 min: 185 nm/s
BCRP [8]; human, Caco-2, pH 7.4, Caco-2, Cladribine, B-to-A, read-out: Papp R1
  Papp B→A at 120 min: 177 nm/s
BCRP [8]; human, Caco-2, pH 7.4, Caco-2, Cladribine, B-to-A, read-out: Papp R2
  Papp B→A at 120 min: 193 nm/s
BCRP [8]; human, Caco-2, pH 7.4, with Ko143 0.5 µM, Caco-2, Cladribine + 0.5 μM Ko143, A-to-B
  recovery at 120 min: 89.8%
BCRP [8]; human, Caco-2, pH 7.4, with Ko143 0.5 µM, Caco-2, Cladribine + 0.5 μM Ko143, B-to-A
  recovery at 120 min: 87.7%
BCRP [8]; human, pH 7.4, Caco-2, Cladribine
  efflux ratio at 120 min: 32
BCRP [9]; Caco-2, pH 7.4
  efflux ratio: 32
BCRP [9]; Caco-2, pH 7.4, % Recovery, IC50 determination, Caco-2, Cladribine alone, B-A
  recovery: 103%
BCRP [9]; Caco-2, pH 7.4, Papp AVG, Caco-2, Cladribine alone, A-to-B
  Papp A→B: 5.8 nm/s
BCRP [9]; Caco-2, pH 7.4, Papp AVG, Caco-2, Cladribine alone, B-to-A
  Papp B→A: 185 nm/s
BCRP [9]; Caco-2, pH 7.4, Papp AVG, IC50 determination, Caco-2, Cladribine alone, B-A
  Papp B→A: 146 nm/s
BCRP [9]; Caco-2, pH 7.4, Papp R1, Caco-2, Cladribine alone, A-to-B
  Papp A→B: 6.81 nm/s
BCRP [9]; Caco-2, pH 7.4, Papp R1, Caco-2, Cladribine alone, B-to-A
  Papp B→A: 177 nm/s
BCRP [9]; Caco-2, pH 7.4, Papp R1, IC50 determination, Caco-2, Cladribine alone, B-A
  Papp B→A: 178 nm/s
BCRP [9]; Caco-2, pH 7.4, Papp R2, Caco-2, Cladribine alone, A-to-B
  Papp A→B: 4.78 nm/s
BCRP [9]; Caco-2, pH 7.4, Papp R2, Caco-2, Cladribine alone, B-to-A
  Papp B→A: 193 nm/s
BCRP [9]; Caco-2, pH 7.4, Papp R2, IC50 determination, Caco-2, Cladribine alone, B-A
  Papp B→A: 115 nm/s
BCRP [9]; Caco-2, pH 7.4, Recovery (%), Caco-2, Cladribine alone, A-to-B
  recovery: 80.5%
BCRP [9]; Caco-2, pH 7.4, Recovery (%), Caco-2, Cladribine alone, B-to-A
  recovery: 85.6%
BCRP [10]
  Papp A→B: 1.36 nm/s
  Papp B→A: 184 nm/s
  efflux ratio: 135
BCRP [11]; BCRP-MDCK, Cladribine
  BCRP Substrate Classification: Positive
BCRP [11]; dog, pH 7.4, BCRP-MDCK, Cladribine, A-to-B
  recovery at 120 min: 91.3%
BCRP [11]; dog, pH 7.4, BCRP-MDCK, Cladribine, A-to-B, read-out: Papp AVG
  Papp A→B at 120 min: 2.11 nm/s
BCRP [11]; dog, pH 7.4, BCRP-MDCK, Cladribine, A-to-B, read-out: Papp R1
  Papp A→B at 120 min: 1.42 nm/s
BCRP [11]; dog, pH 7.4, BCRP-MDCK, Cladribine, A-to-B, read-out: Papp R2
  Papp A→B at 120 min: 2.8 nm/s
BCRP [11]; dog, pH 7.4, BCRP-MDCK, Cladribine, B-to-A
  recovery at 120 min: 92.9%
BCRP [11]; dog, pH 7.4, BCRP-MDCK, Cladribine, B-to-A, read-out: Papp AVG
  Papp B→A at 120 min: 176 nm/s
BCRP [11]; dog, pH 7.4, BCRP-MDCK, Cladribine, B-to-A, read-out: Papp R1
  Papp B→A at 120 min: 156 nm/s
BCRP [11]; dog, pH 7.4, BCRP-MDCK, Cladribine, B-to-A, read-out: Papp R2
  Papp B→A at 120 min: 196 nm/s
BCRP [11]; dog, pH 7.4, with Ko143 0.5 µM, BCRP-MDCK, Cladribine + 0.5 μM Ko143, A-to-B
  recovery at 120 min: 93.5%
BCRP [11]; dog, pH 7.4, with Ko143 0.5 µM, BCRP-MDCK, Cladribine + 0.5 μM Ko143, B-to-A
  recovery at 120 min: 107%
BCRP [11]; dog, pH 7.4, BCRP-MDCK, Cladribine
  efflux ratio at 120 min: 83.3
